In patent US7846959B2, “Raf modulators and methods of use” (Exelixis, Inc., priority 2004, dated 2010):

Experiments:
c-Raf = c-Raf (Homo sapiens, UniProt P04049); assay: Luciferase-coupled chemiluminescence kinase assay (ATP consumption), c-Raf; assay type: biochemical; conditions: read-out: cRaf-1 (inhibition indicated as IC50)
Outline: (§1)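 Read-out: percent ATP consumed, quantified by luciferase/luciferin chemiluminescence after the kinase step. ATP consumption was held at 25-60%. Kinase ([…]) plus compound were preincubated 30 min at RT in Tris pH 7.5 buffer with MgCl2, Triton and DTT, then reacted with ATP for 3 h.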

B-Raf = B-Raf (Homo sapiens, UniProt P15056); assay: Luciferase-coupled chemiluminescence kinase assay (ATP consumption), B-Raf; assay type: biochemical; conditions: read-out: bRaf (inhibition indicated as IC50)
Outline: as §1

Sequence of B-Raf (P15056 whole entry): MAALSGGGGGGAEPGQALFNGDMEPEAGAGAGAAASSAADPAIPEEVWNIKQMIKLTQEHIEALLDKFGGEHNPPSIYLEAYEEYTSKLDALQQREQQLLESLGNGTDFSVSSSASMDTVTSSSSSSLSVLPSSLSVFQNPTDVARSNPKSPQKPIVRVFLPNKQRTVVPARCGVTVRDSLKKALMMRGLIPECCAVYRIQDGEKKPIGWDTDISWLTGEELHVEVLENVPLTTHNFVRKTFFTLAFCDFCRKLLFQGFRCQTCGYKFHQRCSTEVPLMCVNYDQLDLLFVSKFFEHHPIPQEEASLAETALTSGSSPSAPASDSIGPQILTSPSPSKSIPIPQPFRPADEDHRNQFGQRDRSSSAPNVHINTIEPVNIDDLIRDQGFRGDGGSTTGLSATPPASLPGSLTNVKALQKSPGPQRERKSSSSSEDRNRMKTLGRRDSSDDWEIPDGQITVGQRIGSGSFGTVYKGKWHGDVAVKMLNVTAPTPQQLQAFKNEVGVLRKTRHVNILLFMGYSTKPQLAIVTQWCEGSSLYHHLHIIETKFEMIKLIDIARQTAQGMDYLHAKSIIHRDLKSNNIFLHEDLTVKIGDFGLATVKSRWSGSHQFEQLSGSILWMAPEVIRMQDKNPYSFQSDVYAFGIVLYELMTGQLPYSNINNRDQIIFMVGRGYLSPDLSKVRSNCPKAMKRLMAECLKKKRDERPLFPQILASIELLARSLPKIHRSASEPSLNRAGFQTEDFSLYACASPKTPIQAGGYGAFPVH
Sequence of c-Raf (P04049 whole entry): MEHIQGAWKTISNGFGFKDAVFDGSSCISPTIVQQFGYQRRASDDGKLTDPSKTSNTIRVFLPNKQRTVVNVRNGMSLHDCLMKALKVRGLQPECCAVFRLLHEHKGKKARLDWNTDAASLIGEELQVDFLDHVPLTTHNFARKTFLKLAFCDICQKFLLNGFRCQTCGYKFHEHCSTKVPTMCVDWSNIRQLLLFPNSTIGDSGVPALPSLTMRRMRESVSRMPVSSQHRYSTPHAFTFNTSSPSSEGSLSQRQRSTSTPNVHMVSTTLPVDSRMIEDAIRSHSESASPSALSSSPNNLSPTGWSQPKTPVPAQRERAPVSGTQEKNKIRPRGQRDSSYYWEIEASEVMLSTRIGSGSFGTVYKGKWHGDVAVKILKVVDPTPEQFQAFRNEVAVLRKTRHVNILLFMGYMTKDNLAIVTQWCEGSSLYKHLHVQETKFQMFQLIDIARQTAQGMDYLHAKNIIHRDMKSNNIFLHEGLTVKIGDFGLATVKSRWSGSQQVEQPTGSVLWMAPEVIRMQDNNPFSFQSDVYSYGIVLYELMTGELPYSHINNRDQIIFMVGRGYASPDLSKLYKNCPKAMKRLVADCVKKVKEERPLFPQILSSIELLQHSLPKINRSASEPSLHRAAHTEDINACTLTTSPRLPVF

| Structure (SMILES) | IC50 (c-Raf) | IC50 (B-Raf) |
| --- | --- | --- |
| O=C(CCCN1CCCCC1)Nc1nc2cc(C3(O)c4ccccc4C(=O)N3c3cccc(Cl)c3F)ccc2[nH]1 (centres unmarked) [Entry 288, N-{5-[2-(3-chloro-2-fluorophenyl)-1-hydroxy-3-oxo-2,3-dihydro-1H-isoindol-1-yl]-1H-benzimidazol-2-yl}-4-piperidin-1-ylbutanamide] | < 100 nM | < 100 nM |
| COC(=O)Nc1nc2ccc(C(=O)c3ccccc3NC(=O)c3ccccc3)cc2[nH]1 [Entry 289, methyl [6-({2-[(phenylcarbonyl)amino]phenyl}carbonyl)-1H-benzimidazol-2-yl]carbamate] | 1000 to 10000 nM | 1000 to 10000 nM |
| COC(=O)Nc1nc2cc(C3(O)c4ccccc4C(=O)N3c3cccc(N4CCOCC4)c3)ccc2[nH]1 (centres unmarked) [Entry 290, methyl {5-[1-hydroxy-2-(3-morpholin-4-ylphenyl)-3-oxo-2,3-dihydro-1H-isoindol-1-yl]-1H-benzimidazol-2-yl}carbamate] | 1000 to 10000 nM | 1000 to 10000 nM |
| CN(C)CCOC(=O)Nc1nc2ccc(C3(O)c4ccccc4C(=O)N3c3cccc(Cl)c3F)cc2[nH]1 (centres unmarked) [Entry 291, 2-(dimethylamino)ethyl {6-[2-(3-chloro-2-fluorophenyl)-1-hydroxy-3-oxo-2,3-dihydro-1H-isoindol-1-yl]-1H-benzimidazol-2-yl}carbamate] | < 100 nM | < 100 nM |
| CCN(CC)CCOC(=O)Nc1nc2cc(C3(O)c4ccccc4C(=O)N3c3cccc(Cl)c3F)ccc2[nH]1 (centres unmarked) [Entry 292, 2-(diethylamino)ethyl {5-[2-(3-chloro-2-fluorophenyl)-1-hydroxy-3-oxo-2,3-dihydro-1H-isoindol-1-yl]-1H-benzimidazol-2-yl}carbamate] | < 100 nM | < 100 nM |
| O=C(Nc1nc2cc(C3(O)c4ccccc4C(=O)N3c3cccc(Cl)c3F)ccc2[nH]1)OCCN1CCCCC1 (centres unmarked) [Entry 293, 2-piperidin-1-ylethyl {5-[2-(3-chloro-2-fluorophenyl)-1-hydroxy-3-oxo-2,3-dihydro-1H-isoindol-1-yl]-1H-benzimidazol-2-yl}carbamate] | < 100 nM | < 100 nM |
| O=C(Nc1nc2ccc(C3(O)c4ccccc4C(=O)N3c3cccc(Cl)c3F)cc2[nH]1)OCCCN1CCCCC1 (centres unmarked) [Entry 294, 3-piperidin-1-ylpropyl {6-[2-(3-chloro-2-fluorophenyl)-1-hydroxy-3-oxo-2,3-dihydro-1H-isoindol-1-yl]-1H-benzimidazol-2-yl}carbamate] | 1000 to 10000 nM | 1000 to 10000 nM |
| O=C(Nc1nc2ccc(C3c4ccccc4C(=O)N3c3cccc(Br)c3)cc2[nH]1)OCCN1CCCCC1 (centres unmarked) [Entry 295, 2-piperidin-1-ylethyl {6-[2-(3-bromophenyl)-3-oxo-2,3-dihydro-1H-isoindol-1-yl]-1H-benzimidazol-2-yl}carbamate] | < 100 nM | 100 to 1000 nM |
| COC(=O)Nc1nc2ccc(C3(O)c4c(F)ccc(F)c4C(=O)N3c3cccc(Br)c3)cc2[nH]1 (centres unmarked) [Entry 296, methyl {6-[2-(3-bromophenyl)-4,7-difluoro-1-hydroxy-3-oxo-2,3-dihydro-1H-isoindol-1-yl]-1H-benzimidazol-2-yl}carbamate] | < 100 nM | < 100 nM |
| CN(CCOC(=O)Nc1nc2cc(C3(O)c4ccccc4C(=O)N3c3cccc(Cl)c3F)ccc2[nH]1)Cc1ccccc1 (centres unmarked) [Entry 297, 2-[methyl(phenylmethyl)amino]ethyl {5-[2-(3-chloro-2-fluorophenyl)-1-hydroxy-3-oxo-2,3-dihydro-1H-isoindol-1-yl]-1H-benzimidazol-2-yl}carbamate] | < 100 nM | < 100 nM |
| COC(=O)Nc1nc2cc(C3(O)c4ccccc4C(=O)N3c3cccc(N4CCCC4)c3)ccc2[nH]1 (centres unmarked) [Entry 298, methyl {5-[1-hydroxy-3-oxo-2-(3-pyrrolidin-1-ylphenyl)-2,3-dihydro-1H-isoindol-1-yl]-1H-benzimidazol-2-yl}carbamate] | 1000 to 10000 nM | 1000 to 10000 nM |
| COC(=O)Nc1nc2cc(C3(O)c4ccccc4C(=O)N3c3cc(Cl)cc(F)c3F)ccc2[nH]1 (centres unmarked) [Entry 299, methyl {5-[2-(5-chloro-2,3-difluorophenyl)-1-hydroxy-3-oxo-2,3-dihydro-1H-isoindol-1-yl]-1H-benzimidazol-2-yl}carbamate] | < 100 nM | < 100 nM |
| COC(=O)Nc1nc2cc(C3(O)c4ccccc4C(=O)N3CC3CCCN3)ccc2[nH]1 (centres unmarked) [Entry 300, methyl {5-[1-hydroxy-3-oxo-2-(pyrrolidin-2-ylmethyl)-2,3-dihydro-1H-isoindol-1-yl]-1H-benzimidazol-2-yl}carbamate] | 1000 to 10000 nM | 1000 to 10000 nM |
| COC(=O)Nc1nc2cc(C3(O)c4ccccc4C(=O)N3CC3CCNC3)ccc2[nH]1 (centres unmarked) [Entry 301, methyl {5-[1-hydroxy-3-oxo-2-(pyrrolidin-3-ylmethyl)-2,3-dihydro-1H-isoindol-1-yl]-1H-benzimidazol-2-yl}carbamate] | 1000 to 10000 nM | 1000 to 10000 nM |
| CN1CCCCC1COC(=O)Nc1nc2ccc(C3(O)c4ccccc4C(=O)N3c3cccc(Cl)c3F)cc2[nH]1 (centres unmarked) [Entry 302, (1-methylpiperidin-2-yl)methyl {6-[2-(3-chloro-2-fluorophenyl)-1-hydroxy-3-oxo-2,3-dihydro-1H-isoindol-1-yl]-1H-benzimidazol-2-yl}carbamate] | < 100 nM | < 100 nM |
| CN1CCC[C@H]1COC(=O)Nc1nc2ccc(C3(O)c4ccccc4C(=O)N3c3cccc(Cl)c3F)cc2[nH]1 (stereo partly drawn) [Entry 303, [(2S)-1-methylpyrrolidin-2-yl]methyl {6-[2-(3-chloro-2-fluorophenyl)-1-hydroxy-3-oxo-2,3-dihydro-1H-isoindol-1-yl]-1H-benzimidazol-2-yl}carbamate] | < 100 nM | < 100 nM |
| O=C(Nc1nc2ccc(C3(O)c4ccccc4C(=O)N3c3cccc(Cl)c3F)cc2[nH]1)OCC1CCCN2CCCCC12 (centres unmarked) [Entry 304, octahydro-2H-quinolizin-1-ylmethyl {6-[2-(3-chloro-2-fluorophenyl)-1-hydroxy-3-oxo-2,3-dihydro-1H-isoindol-1-yl]-1H-benzimidazol-2-yl}carbamate] | < 100 nM | < 100 nM |
| COC(=O)Nc1nc2cc(C3(O)c4ccccc4C(=O)N3c3cc(Br)ccc3C)ccc2[nH]1 (centres unmarked) [Entry 305, methyl {5-[2-(5-bromo-2-methylphenyl)-1-hydroxy-3-oxo-2,3-dihydro-1H-isoindol-1-yl]-1H-benzimidazol-2-yl}carbamate] | < 100 nM | < 100 nM |
| O=C1c2ccccc2C(O)(c2ccc3[nH]c(=O)[nH]c3c2)N1c1cccc(Cl)c1F (centres unmarked) [Entry 306, 5-[2-(3-chloro-2-fluorophenyl)-1-hydroxy-3-oxo-2,3-dihydro-1H-isoindol-1-yl]-1,3-dihydro-2H-benzimidazol-2-one] | 1000 to 10000 nM | 1000 to 10000 nM |
| COC(=O)Nc1nc2cc(C3(O)c4ccccc4C(=O)N3c3cc(F)cc(Br)c3F)ccc2[nH]1 (centres unmarked) [Entry 307, methyl {5-[2-(3-bromo-2,5-difluorophenyl)-1-hydroxy-3-oxo-2,3-dihydro-1H-isoindol-1-yl]-1H-benzimidazol-2-yl}carbamate] | < 100 nM | < 100 nM |
| O=C(Nc1nc2ccc(C3(O)c4ccccc4C(=O)N3c3cccc(Cl)c3F)cc2[nH]1)OCCN1CCOCC1 (centres unmarked) [Entry 308, 2-morpholin-4-ylethyl {6-[2-(3-chloro-2-fluorophenyl)-1-hydroxy-3-oxo-2,3-dihydro-1H-isoindol-1-yl]-1H-benzimidazol-2-yl}carbamate] | < 100 nM | < 100 nM |
| CN1CCCC(COC(=O)Nc2nc3ccc(C4(O)c5ccccc5C(=O)N4c4cccc(Cl)c4F)cc3[nH]2)C1 (centres unmarked) [Entry 309, (1-methylpiperidin-3-yl)methyl {6-{2-(3-chloro-2-fluorophenyl)-1-hydroxy-3-oxo-2,3-dihydro-1H-isoindol-1-yl]-1H-benzimidazol-2-yl}carbamate] | < 100 nM | < 100 nM |
| COC(=O)Nc1nc2cc(C3(O)c4ccccc4C(=O)N3c3cc(Cl)ccc3OC)ccc2[nH]1 (centres unmarked) [Entry 310, methyl (5-{2-[5-chloro-2-(methyloxy)phenyl]-1-hydroxy-3-oxo-2,3-dihydro-1H-isoindol-1-yl}-1H-benzimidazol-2-yl)carbamate] | < 100 nM | < 100 nM |
| COC(=O)Nc1nc2cc(C3(O)c4ccccc4C(=O)N3c3cccc(N(C)C4CCCCC4)c3)ccc2[nH]1 (centres unmarked) [Entry 311, methyl [5-(2-{3-[cyclohexyl(methyl)amino]phenyl}-1-hydroxy-3-oxo-2,3-dihydro-1H-isoindol-1-yl)-1H-benzimidazol-2-yl]carbamate] | < 100 nM | < 100 nM |
| O=C(Nc1nc2ccc(C3(O)c4ccccc4C(=O)N3c3cccc(Cl)c3F)cc2[nH]1)OCC1CC2CCC(C1)N2 (centres unmarked) [Entry 312, 8-azabicyclo[3.2.1]oct-3-ylmethyl {6-[2-(3-chloro-2-fluorophenyl)-1-hydroxy-3-oxo-2,3-dihydro-1H-isoindol-1-yl]-1H-benzimidazol-2-yl}carbamate] | < 100 nM | < 100 nM |
| COC(=O)Nc1nc2ccc(C3CCC(=O)N3c3cccc(Br)c3)cc2[nH]1 (centres unmarked) [Entry 313, methyl {6-[1-(3-bromophenyl)-5-oxopyrrolidin-2-yl]-1H-benzimidazol-2-yl}carbamate] | 1000 to 10000 nM | 1000 to 10000 nM |
| CN1CCC(COC(=O)Nc2nc3cc(C4(O)c5ccccc5C(=O)N4Cc4ccccc4)ccc3[nH]2)CC1 (centres unmarked) [Entry 314, (1-methylpiperidin-4-yl)methyl {5-[1-hydroxy-3-oxo-2-(phenylmethyl)-2,3-dihydro-1H-isoindol-1-yl]-1H-benzimidazol-2-yl}carbamate] | < 100 nM | < 100 nM |
| CC(C)(C)OC(=O)N1CCC(COC(=O)Nc2nc3cc(C4(O)c5ccccc5C(=O)N4Cc4ccccc4)ccc3[nH]2)CC1 (centres unmarked) [Entry 315, 1,1-dimethylethyl 4-({[({5-[1-hydroxy-3-oxo-2-(phenylmethyl)-2,3-dihydro-1H-isoindol-1-yl]-1H-benzimidazol-2-yl}amino)carbonyl]oxy}methyl)piperidine-1-carboxylate] | 100 to 1000 nM | 100 to 1000 nM |
